Values after ≈ are worked out from the molar mass of the structure shown. Read-outs that look alike come from different tables or passages of the source. Where a SMILES comes first, the peptide text is derived from it. Bridges are numbered along the chain shown (N, C = ends). [ ]: non-standard residue; d: D form. The star is where a group is joined. Heptanoyl(6-Me) = CC(C)CCCCC(=O)*; Dab = NCC[C@H](N)C(=O)O
Assays:
Test in all cases: Antibacterial activity MIC assay (two-fold dilution agar plating)
Format in all cases: cell-based
Acinetobacter baumannii = conditions: for MIC: Acinetobacter baumannii, read-out: Minimal Inhibitory Concentration (MIC)
Experimental: (§1) Antibacterial Activity-Evaluating Method (MIC Assay)
(§2) In this study, the compounds of the present invention were tested for their antibacterial activities by using two-fold dilution agar plating method and Denley Multipoint Inoculator A400 according to the guidelines of the CLSI/NCCLS standard. The tested strains were amplified by hydrolyzed casein peptone (Mueller-Hinton Agar) broth and Brain and Heart Infusion. The strains used in this study were bacterial strains that were purchased from ATCC or clinically isolated in Chinese hospitals. Aztreonam, polymyxin or levofloxacin was used as positive control. The drugs were diluted with hydrolyzed casein peptone broth to the desired concentrations including 128.0, 64.0, 32.0, 16.0, 8.0, 4.0, 2.0, 1.0, 0.5, 0.25, 0.125, 0.06 and 0.03 μg/mL, and then placed respectively into each well and mixed thoroughly. After inoculation, the tested strains were incubated for 18 hours at a constant temperature of 35° C., and their growth levels were observed. The drug concentration with no microbial growth in the well was recorded as the lowest Minimal Inhibitory Concentration (MIC).

Citrobacter freundii = Citrobacter freundii ATCC 43864; for MIC: ATCC43864, read-out: Minimal Inhibitory Concentration (MIC)
Experimental: as §1, §2

Enterobacter aerogenes = Enterobacter aerogenes ATCC 13048; for MIC: Klebsiella aerogenes, ATCC13048, read-out: Minimal Inhibitory Concentration (MIC)
Experimental: as §1, §2

Enterobacter cloacae = conditions: for MIC: read-out: Minimal Inhibitory Concentration (MIC)
Experimental: as §1, §2

Escherichia coli = conditions: for MIC: Escherichia coli, read-out: Minimal Inhibitory Concentration (MIC)
Experimental: as §1, §2

Klebsiella Pneumoniae = conditions: for MIC: Klebsiella pneumoniae, read-out: Minimal Inhibitory Concentration (MIC)
Experimental: as §1, §2

Proteus mirabilis = conditions: for MIC: Proteus mirabilis, ATCC49565, Proteus mirabilis ATCC 49565, read-out: Minimal Inhibitory Concentration (MIC)
Experimental: as §1, §2

Proteus vulgaris = conditions: for MIC: Proteus vulgaris, ATCC29905, Proteus vulgaris ATCC 29905, read-out: Minimal Inhibitory Concentration (MIC)
Experimental: as §1, §2

Providencia rettgeri = conditions: for MIC: Providencia rettgeri, ATCC31052, Providencia rettgeri ATCC 31052, read-out: Minimal Inhibitory Concentration (MIC)
Experimental: as §1, §2

Pseudomonas aeruginosa = conditions: for MIC: read-out: Minimal Inhibitory Concentration (MIC)
Experimental: as §1, §2

Salmonella typhi = conditions: for MIC: Salmonella enterica, TYPHI, read-out: Minimal Inhibitory Concentration (MIC)
Experimental: as §1, §2

Serratia marcescens = Serratia marcescens ATCC 21074; for MIC: ATCC21074, read-out: Minimal Inhibitory Concentration (MIC)
Experimental: as §1, §2

Shigella flexneri = Shigella flexneri ATCC 12022; for MIC: ATCC12022, read-out: Minimal Inhibitory Concentration (MIC)
Experimental: as §1, §2

[1] = tested on: Stenotrophomonas maltophilia; conditions: Stenotrophomonas maltophilia ATCC 13636; for MIC: ATCC13636, read-out: Minimal Inhibitory Concentration (MIC)
Experimental: as §1, §2

[2] = ATCC19606, Acinetobacter baumannii ATCC 19606
[3] = ATCC43560, Enterobacter cloacae ATCC 43560
[4] = Enterobacter cloacae CDC1000654
[5] = ATCC25922, Escherichia coli ATCC 25922, ESBLs(−)
[6] = ATCC35218, Escherichia coli ATCC 35218, ESBLs(+)
[7] = Escherichia coli 08-85, mcr-1(+)
[8] = Escherichia coli 13-43, mcr-1(+)
[9] = Escherichia coli 13-66, mcr-1(+)
[10] = Escherichia coli 16-1, ESBLs(+)
[11] = Escherichia coli 16-7, ESBLs(−)
[12] = Escherichia coli 17-R28, CRE, NDM-1(+)
[13] = Escherichia coli CDC1001728, NDM-1(+)
[14] = ATCC700603, Klebsiella Pneumoniae ATCC 700603, ESBLs(+)
[15] = ATCCBAA2146, Klebsiella Pneumoniae ATCC BAA-2146, NDM-1(+)
[16] = Klebsiella Pneumoniae 09-20, mcr-1(+)
[17] = Klebsiella Pneumoniae 16-2, ESBLs(−)
[18] = Klebsiella Pneumoniae 16-14, ESBLs(+)
[19] = Klebsiella Pneumoniae 17-R27, CRE
[20] = ATCC27853, Pseudomonas aeruginosa ATCC 27853

SMILES: C[C@H]1[C@H](NC(=O)/C(=N\OC(C)(C)C(=O)O)c2csc(N)n2)C(=O)N1S(=O)(=O)O [AZN, aztreonam, reference compound]
- MIC (Acinetobacter baumannii; [2]): 32 µg/mL (≈ 73.5 µM)
- MIC (Acinetobacter baumannii; Acinetobacter baumannii 16-16): 128 µg/mL (≈ 294 µM)
- MIC (Acinetobacter baumannii; Acinetobacter baumannii 16-33): 32 µg/mL (≈ 73.5 µM)
- MIC (Citrobacter freundii): 0.12 µg/mL (≈ 0.276 µM)
- MIC (Enterobacter aerogenes): 0.12 µg/mL (≈ 0.276 µM)
- MIC (Enterobacter cloacae; [3]): ≤ 0.03 µg/mL
- MIC (Enterobacter cloacae; [4]): > 128 µg/mL
- MIC (Escherichia coli; [5]): 0.06 µg/mL (≈ 0.138 µM)
- MIC (Escherichia coli; [6]): ≤ 0.03 µg/mL
- MIC (Escherichia coli; [7]): 4 µg/mL (≈ 9.19 µM)
- MIC (Escherichia coli; [8]): 8 µg/mL (≈ 18.4 µM)
- MIC (Escherichia coli; [9]): 8 µg/mL (≈ 18.4 µM)
- MIC (Escherichia coli; [10]): ≤ 0.03 µg/mL
- MIC (Escherichia coli; [11]): 0.06 µg/mL (≈ 0.138 µM)
- MIC (Escherichia coli; [12]): 16 µg/mL (≈ 36.7 µM)
- MIC (Escherichia coli; [13]): 4 µg/mL (≈ 9.19 µM)
- MIC (Klebsiella Pneumoniae; [14]): 32 µg/mL (≈ 73.5 µM)
- MIC (Klebsiella Pneumoniae; [15]): > 128 µg/mL
- MIC (Klebsiella Pneumoniae; [16]): 0.25 µg/mL (≈ 0.574 µM)
- MIC (Klebsiella Pneumoniae; [17]): 0.06 µg/mL (≈ 0.138 µM)
- MIC (Klebsiella Pneumoniae; [18]): 4 µg/mL (≈ 9.19 µM)
- MIC (Klebsiella Pneumoniae; [19]): 0.25 µg/mL (≈ 0.574 µM)
- MIC (Proteus mirabilis): ≤ 0.03 µg/mL
- MIC (Proteus vulgaris): ≤ 0.03 µg/mL
- MIC (Providencia rettgeri): ≤ 0.03 µg/mL
- MIC (Pseudomonas aeruginosa; [20]): 4 µg/mL (≈ 9.19 µM)
- MIC (Pseudomonas aeruginosa; Pseudomonas aeruginosa 16-11): > 128 µg/mL
- MIC (Pseudomonas aeruginosa; Pseudomonas aeruginosa PAO1): 4 µg/mL (≈ 9.19 µM)
- MIC (Salmonella typhi): ≤ 0.03 µg/mL
- MIC (Serratia marcescens): 0.12 µg/mL (≈ 0.276 µM)
- MIC (Shigella flexneri): 0.25 µg/mL (≈ 0.574 µM)
- MIC [1]: 32 µg/mL (≈ 73.5 µM)

SMILES: CC(C)CCCCC(=O)N[C@@H](CCN)C(=O)N[C@H](C(=O)N[C@@H](CCN)C(=O)N[C@H]1CCNC(=O)[C@H]([C@@H](C)O)NC(=O)[C@H](CCN)NC(=O)[C@H](CCN)NC(=O)[C@H](CC(C)C)NC(=O)[C@@H](CC(C)C)NC(=O)[C@H](CCN)NC1=O)[C@@H](C)O [Colistin B, colistin B, reference compound] ({Heptanoyl(6-Me)}-[Dab]T[Dab][Dab][Dab][dL]L[Dab][Dab]T; lactam 4-C)
- Minimal Inhibitory Concentration (MIC) (Acinetobacter baumannii; Acinetobacter baumannii 16-16): 1 µg/mL
- Minimal Inhibitory Concentration (MIC) (Acinetobacter baumannii; Acinetobacter baumannii 16-33): 2 µg/mL
- Minimal Inhibitory Concentration (MIC) (Acinetobacter baumannii; Acinetobacter baumannii ATCC 19606): 1 µg/mL
- Minimal Inhibitory Concentration (MIC) (Citrobacter freundii): 2 µg/mL
- Minimal Inhibitory Concentration (MIC) (Enterobacter aerogenes): 2 µg/mL
- Minimal Inhibitory Concentration (MIC) (Enterobacter cloacae; Enterobacter cloacae ATCC 43560): >64 µg/mL
- Minimal Inhibitory Concentration (MIC) (Enterobacter cloacae; [4]): 1 µg/mL
- Minimal Inhibitory Concentration (MIC) (Escherichia coli; [7]): 8 µg/mL
- Minimal Inhibitory Concentration (MIC) (Escherichia coli; [8]): 8 µg/mL
- Minimal Inhibitory Concentration (MIC) (Escherichia coli; [9]): 8 µg/mL
- Minimal Inhibitory Concentration (MIC) (Escherichia coli; [10]): 0.5 µg/mL
- Minimal Inhibitory Concentration (MIC) (Escherichia coli; [11]): 1 µg/mL
- Minimal Inhibitory Concentration (MIC) (Escherichia coli; Escherichia coli ATCC 25922, ESBLs(−)): 1 µg/mL
- Minimal Inhibitory Concentration (MIC) (Escherichia coli; Escherichia coli ATCC 35218, ESBLs(+)): 1 µg/mL
- Minimal Inhibitory Concentration (MIC) (Escherichia coli; [13]): 1 µg/mL
- Minimal Inhibitory Concentration (MIC) (Klebsiella Pneumoniae; [16]): 16 µg/mL
- Minimal Inhibitory Concentration (MIC) (Klebsiella Pneumoniae; [17]): 1 µg/mL
- Minimal Inhibitory Concentration (MIC) (Klebsiella Pneumoniae; [18]): 1 µg/mL
- Minimal Inhibitory Concentration (MIC) (Klebsiella Pneumoniae; Klebsiella Pneumoniae ATCC 700603, ESBLs(+)): 2 µg/mL
- Minimal Inhibitory Concentration (MIC) (Klebsiella Pneumoniae; Klebsiella Pneumoniae ATCC BAA-2146, NDM-1(+)): 1 µg/mL
- Minimal Inhibitory Concentration (MIC) (Proteus mirabilis; Proteus mirabilis ATCC 49565): >64 µg/mL
- Minimal Inhibitory Concentration (MIC) (Proteus vulgaris; Proteus vulgaris ATCC 29905): >64 µg/mL
- Minimal Inhibitory Concentration (MIC) (Providencia rettgeri; Providencia rettgeri ATCC 31052): >64 µg/mL
- Minimal Inhibitory Concentration (MIC) (Pseudomonas aeruginosa; Pseudomonas aeruginosa 16-11): 4 µg/mL
- Minimal Inhibitory Concentration (MIC) (Pseudomonas aeruginosa; Pseudomonas aeruginosa ATCC 27853): 4 µg/mL
- Minimal Inhibitory Concentration (MIC) (Pseudomonas aeruginosa; Pseudomonas aeruginosa PAO1): 8 µg/mL
- Minimal Inhibitory Concentration (MIC) (Salmonella typhi; Salmonella typhi H901): 1 µg/mL
- Minimal Inhibitory Concentration (MIC) (Serratia marcescens): >64 µg/mL
- Minimal Inhibitory Concentration (MIC) (Shigella flexneri): 0.5 µg/mL
- Minimal Inhibitory Concentration (MIC) [1]: >64 µg/mL

SMILES: CC1(C)[C@H](NC(=O)/C(=N\OC2(C(=O)O)CC2)c2csc(N)n2)C(=O)N1OS(=O)(=O)O [Compound A-1]
- MIC (Acinetobacter baumannii; [2]): 16 µg/mL (≈ 34.5 µM)
- MIC (Acinetobacter baumannii; Acinetobacter baumannii 16-16): 64 µg/mL (≈ 138 µM)
- MIC (Acinetobacter baumannii; Acinetobacter baumannii 16-33): 32 µg/mL (≈ 69 µM)
- MIC (Citrobacter freundii): 0.12 µg/mL (≈ 0.259 µM)
- MIC (Enterobacter aerogenes): 0.12 µg/mL (≈ 0.259 µM)
- MIC (Enterobacter cloacae; [3]): 0.06 µg/mL (≈ 0.129 µM)
- MIC (Enterobacter cloacae; [4]): 2 µg/mL (≈ 4.32 µM)
- MIC (Escherichia coli; [5]): 0.12 µg/mL (≈ 0.259 µM)
- MIC (Escherichia coli; [6]): 0.06 µg/mL (≈ 0.129 µM)
- MIC (Escherichia coli; [7]): 0.12 µg/mL (≈ 0.259 µM)
- MIC (Escherichia coli; [8]): 0.12 µg/mL (≈ 0.259 µM)
- MIC (Escherichia coli; [9]): 0.12 µg/mL (≈ 0.259 µM)
- MIC (Escherichia coli; [10]): 0.06 µg/mL (≈ 0.129 µM)
- MIC (Escherichia coli; [11]): 0.12 µg/mL (≈ 0.259 µM)
- MIC (Escherichia coli; [12]): 4 µg/mL (≈ 8.63 µM)
- MIC (Escherichia coli; [13]): 0.25 µg/mL (≈ 0.539 µM)
- MIC (Klebsiella Pneumoniae; [14]): 4 µg/mL (≈ 8.63 µM)
- MIC (Klebsiella Pneumoniae; [15]): 0.5 µg/mL (≈ 1.08 µM)
- MIC (Klebsiella Pneumoniae; [16]): 0.06 µg/mL (≈ 0.129 µM)
- MIC (Klebsiella Pneumoniae; [17]): 2 µg/mL (≈ 4.32 µM)
- MIC (Klebsiella Pneumoniae; [18]): 0.12 µg/mL (≈ 0.259 µM)
- MIC (Klebsiella Pneumoniae; [19]): 0.25 µg/mL (≈ 0.539 µM)
- MIC (Proteus mirabilis): ≤ 0.03 µg/mL
- MIC (Proteus vulgaris): ≤ 0.03 µg/mL
- MIC (Providencia rettgeri): ≤ 0.03 µg/mL
- MIC (Pseudomonas aeruginosa; [20]): 8 µg/mL (≈ 17.3 µM)
- MIC (Pseudomonas aeruginosa; Pseudomonas aeruginosa 16-11): 8 µg/mL (≈ 17.3 µM)
- MIC (Pseudomonas aeruginosa; Pseudomonas aeruginosa PAO1): 2 µg/mL (≈ 4.32 µM)
- MIC (Salmonella typhi): 0.06 µg/mL (≈ 0.129 µM)
- MIC (Serratia marcescens): 0.25 µg/mL (≈ 0.539 µM)
- MIC (Shigella flexneri): 0.12 µg/mL (≈ 0.259 µM)
- MIC [1]: 8 µg/mL (≈ 17.3 µM)

Source: patent US12497393B2, “β-lactam compound, use thereof and preparation method therefor” (priority 2020, dated 2025)
